# Values joined by “and” are separate entries in the source; they are usually repeats but may differ in a detail not shown here. Identical values can stand only once.
# Tests used:
# [1] = system: SW480 colon cancer cells; assay: ARP assay of AP sites in DNA from drug-treated SW480 cells; format: cell-based; settings: 2 hrs at 37° C., MX 12.5 mM where combined
# Description: (§1) An ARP method modified for the slot-blot vacuum filter device was used in this work. […]
# [2] = system: SW480 colon cancer cells; assay: FARP assay of AP sites in DNA from drug-treated SW480 cells; format: cell-based; settings: 2 hrs at 37° C., MX 12.5 mM where combined
# Experimental: (§2) 100 μL of 5 μM FARP in phosphate buffer (10 mM, pH 7.0) was added to 200 μL phosphate buffer (10 mM, pH 7.0) containing 10 μg of DNA extracted from cells, individual AP-DNA standard (10, 20, 40, 80, 160, 320, and 640 nM AP), and blank AP-DNA control, respectively. After vortexing, the reaction was allowed to proceed at room temperature for 15 min. At the end of the reaction 200 μL ammonium acetate (7.5M) and 1000 μL ice-cold ethanol (100%) were added. The solution was mixed gently by inverting the tube before keeping it at −20° C. for 30 min. Each tube was centrifuged at 4° C. and 12,000 g for 10 min. The supernatant was poured out carefully so that no loss of FARP-AP-DNA took place. 1200 μL of ice-cold ethanol (70%) was added to each tube to remove the free FARP by centrifugation at 4° C. and 12,000 g for 10 min. This washing step with 70% ice-cold ethanol was repeated two more times. After discarding the supernatant, the FARP-AP-DNA precipitate in the tube was dried at room temperature for 30 min. in a venting hood. The FARP-AP-DNA precipitate was hydrated and resuspended in 200 μL of phosphate buffer (10 mM, pH 9.0) at room temperature for 1 hr. The fluorescence intensity of the resultant FARP-AP-DNA solution was measured by the FluoroMax-2 spectrofluorometer. A calibration curve could be constructed by plotting the fluorescence intensity versus the concentration of AP sites.
# (§3) Adherent SW480 colon cancer cells (from the American Type Culture Collection (Manassas, Va., USA), and human nonadherent mononuclear cells from heparinized peripheral blood of a normal donor, which were purified by the Ficoll-Hypaque density gradient centrifugation technique, were used in the in vitro experiments of TMZ and MX.
# The cells (5×10^6 cells) were plated in 100-mm culture dishes and treated by TMZ alone at various concentrations (0, 187, 375, 750, and 1500 μM), and together with MX (12.5 mM) for 2 hrs at 37° C. At the end of treatment, the cells were washed by either rinsing the SW480 cells on dishes (SW480) or centrifugation of the human cells in tubes with the media. […]
# [3] = system: human nonadherent mononuclear cells; assay: ARP assay of AP sites in DNA from drug-treated human nonadherent mononuclear cells; format: cell-based; settings: human nonadherent cell, 2 hrs at 37° C., MX 12.5 mM where combined
# Description: as §1
# [4] = system: human nonadherent mononuclear cells; assay: FARP assay of AP sites in DNA from drug-treated human nonadherent mononuclear cells; format: cell-based; settings: human nonadherent cell, 2 hrs at 37° C., MX 12.5 mM where combined
# Experimental: as §2, §3
# The cells (5×10^6 cells) were plated in 100-mm culture dishes and treated by TMZ alone at various concentrations (0, 187, 375, 750, and 1500 μM), and together with MX (12.5 mM) for 2 hrs at 37° C. At the end of treatment, the cells were washed by either rinsing the SW480 cells on dishes (SW480) or centrifugation of the human cells in tubes with the media. After plating the cells in dishes with fresh media, 3 mM MX was added to the dishes that were treated with TMZ and MX together. The cells were harvested by centrifugation at […] after the treatment of 3 mM MX. […]
# [5] = system: AP-DNA; assay: FARP AP-site assay: screening of MX-like compounds in competition with FARP; format: binding, calf; settings: 100 nM AP-DNA
# Experimental: as §2
# One important application of the FARP AP-site assay developed is to screen MX-like compounds for their reactivity to AP site based on known chemical structures. In this work, four compounds with aminooxy or hydrazone group (i.e., MXL1O1, MXLIO2, MXLI 03, and MXL 104) together with MX were tested. The detail experiment included mixing equal concentration and volume of each individual test compound with FARP (50 μM in 100 μL of 10 mM phosphate buffer at pH 7.0) before reacting with 200 µL of 100 nM AP-DNA. The remaining experimental procedures were the same as described in the Experimental section. The data of fluorescence intensity reduced by MX and MX-like compounds were given in Table XI and the fluorescence intensity of the test compounds were compared in FIG. 19.
# [6] = system: AP-DNA; assay: Reversibility study of the condensation reaction between FARP / MX and AP-DNA; format: binding, calf; settings: result in words, under the assay conditions
# Experimental: It was known that the aldehyde group of an AP site could easily condense with aminooxy or hydrazone nucleophiles. However, the reversibility of the reaction was not clear, especially in the presence of another competing nucleophile. To clarify the above, two experiments were designed and carried out as follows: (a) FARP (50 μM in 100 μL of 10 mM phosphate buffer at pH 7.0) reacted with AP-DNA (125 nM in 200 μL of 10 mM phosphate buffer at pH 7.0) for 1 hr, after washing the condensation product (FARP-AP-DNA) incubated with MX (50 μM in 100 μL of 10 mM phosphate buffer at pH 7.0) for various time periods; and (b) MX (50 μM in 100 μL of 10 mM phosphate buffer at pH 7.0) reacted with AP-DNA (125 nM, 200 μL) for 1 hr, after washing the condensation product (MX-AP-DNA) incubated with FARP (50 μM in 100 μL of 10 mM phosphate buffer at pH 7.0) for various time periods.
# [7] = test compound mixed with FARP at equal concentration and volume (50 μM in 100 μL, pH 7.0)
Structure (SMILES),"ARP Assay Band Intensity/10^3 ([1]; SW480, TMZ 187 μM)","ARP Assay Band Intensity/10^3 ([1]; SW480, TMZ 375 μM)","ARP Assay Band Intensity/10^3 ([1]; SW480, TMZ 750 μM)","FARP Assay Fluorescence Intensity/10^4 ([2]; SW480, TMZ 187 μM)","FARP Assay Fluorescence Intensity/10^4 ([2]; SW480, TMZ 375 μM)","FARP Assay Fluorescence Intensity/10^4 ([2]; SW480, TMZ 750 μM)",ARP Assay Band Intensity/10^3 ([3]; TMZ 187 μM),ARP Assay Band Intensity/10^3 ([3]; TMZ 375 μM),ARP Assay Band Intensity/10^3 ([3]; TMZ 750 μM),ARP Assay Band Intensity/10^3 ([3]; TMZ 1500 μM),FARP Assay Fluorescence Intensity/10^4 ([4]; TMZ 187 μM),FARP Assay Fluorescence Intensity/10^4 ([4]; TMZ 375 μM),FARP Assay Fluorescence Intensity/10^4 ([4]; TMZ 750 μM),FARP Assay Fluorescence Intensity/10^4 ([4]; TMZ 1500 μM),"Normalized Fluorescence Intensity % ([5]; relative to FARP alone = 100, equal concentration of test compound and FARP)","Fluorescence Intensity Individual Measurement [5, 7]","Fluorescence Intensity Mean [5, 7]",reversibility of the condensation reaction with aldehyde group of AP-DNA [6]
"Cn1nnc2c(C(N)=O)ncn2c1=O [TMZ, 3,4-dihydro-3-methyl-4-oxoimidazo[5,1-d]-as-tetrazine-8-carboxamide]",1.420,2.723,5.233,2.428,3.691,5.310,2.201,3.524,4.352,5.844,1.622,3.138,4.201,15.77,–,–,–,–
"NNC(=S)Nc1ccc(-c2c3ccc(=O)cc-3oc3cc(O)ccc23)c(C(=O)O)c1 [FARP, fluorescein-5-thiosemicarbazide]",–,–,–,–,–,–,–,–,–,–,–,–,–,–,100.0%,17080.0 and 16892.0,16986.0,irreversible
